In patent US20150315211A1, “SMALL MOLECULES FOR THE MODULATION OF MCL-1 AND METHODS OF MODULATING CELL DEATH, CELL DIVISION, CELL DIFFERENTIATION AND METHODS OF TREATING DISORDERS” (priority 2010, published 2015):

Assays:
MCL-1ΔNΔC [1] = experiment: High-throughput competitive FP binding screen, FITC-MCL-1 SAHB/MCL-1ΔNΔC interaction; conditions: selectivity for MCL-1ΔNΔC over BCL-XLΔC targeting (BCL-XL % Bound minus MCL-1 % Bound)
BCL-XLΔC = BCL-XLΔC (Homo sapiens, UniProt Q07817); experiment: High-throughput competitive FP binding screen, FITC-BAD BH3/BCL-XLΔC interaction; conditions: FITC-BAD BH3/BCL-XLΔC interaction pair, competitive FP screen
Sequence of BCL-XLΔC (Q07817 1-212 limits assumed, stated change not applied): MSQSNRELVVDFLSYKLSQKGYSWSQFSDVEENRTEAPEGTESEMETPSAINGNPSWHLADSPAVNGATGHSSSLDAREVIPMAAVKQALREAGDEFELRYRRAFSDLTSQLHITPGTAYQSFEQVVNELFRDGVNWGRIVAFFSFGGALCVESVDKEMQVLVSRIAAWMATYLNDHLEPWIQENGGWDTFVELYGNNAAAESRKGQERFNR

MCL-1ΔNΔC [2] = target: MCL-1ΔNΔC (Homo sapiens, UniProt Q07820); experiment: High-throughput competitive FP binding screen, FITC-MCL-1 SAHB/MCL-1ΔNΔC interaction; parameters: the C-terminal alpha-helix was deleted from each of these constructs; GST (N, cleaved yes); made in house; conditions: FITC-MCL-1 SAHB/MCL-1ΔNΔC interaction pair, competitive FP screen
Sequence of MCL-1ΔNΔC (Homo sapiens, UniProt Q07820) (Q07820 172-320 limits assumed, stated change not applied): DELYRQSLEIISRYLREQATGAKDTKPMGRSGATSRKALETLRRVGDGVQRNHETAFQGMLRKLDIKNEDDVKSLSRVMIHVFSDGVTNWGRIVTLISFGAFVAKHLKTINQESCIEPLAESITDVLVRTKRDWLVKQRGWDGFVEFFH

O=C(/C=C/c1ccco1)NC(=S)Nc1ccccc1C(F)(F)F
Spec Values (MCL-1ΔNΔC [1]): 52.25
BCL-XL % Bound (BCL-XLΔC): 99.25%
MCL-1% Bound (MCL-1ΔNΔC [2]): 47.01%

O=C(/C=C/c1ccc(Br)o1)OCC(=O)c1c[nH]c2ccccc12
Spec Values (MCL-1ΔNΔC [1]): 52.14
BCL-XL % Bound (BCL-XLΔC): 105.6%
MCL-1% Bound (MCL-1ΔNΔC [2]): 53.49%

CCC(c1nnc(SCC(=O)NCCc2ccc(Cl)cc2Cl)o1)N(C)C (stereo not drawn)
Spec Values (MCL-1ΔNΔC [1]): 52.14
BCL-XL % Bound (BCL-XLΔC): 101.6%
MCL-1% Bound (MCL-1ΔNΔC [2]): 49.44%

CCN1C(=O)C2Cc3cc(OC)c(OC)cc3CN2C1=S (stereo not drawn)
Spec Values (MCL-1ΔNΔC [1]): 51.9
BCL-XL % Bound (BCL-XLΔC): 91.73%
MCL-1% Bound (MCL-1ΔNΔC [2]): 39.84%

CCn1c(-c2ccccc2)cnc1S
Spec Values (MCL-1ΔNΔC [1]): 51.73
BCL-XL % Bound (BCL-XLΔC): 105.8%
MCL-1% Bound (MCL-1ΔNΔC [2]): 54.03%

C=C/C(=C\C)N(CC)S(=O)(=O)c1ccc(Oc2ccc(-n3ccnc3)cc2)nc1
Spec Values (MCL-1ΔNΔC [1]): 51.73
BCL-XL % Bound (BCL-XLΔC): 102.9%
MCL-1% Bound (MCL-1ΔNΔC [2]): 51.21%

Cc1ccc(NCc2n[nH]c(=S)n2-c2ccccc2)cc1
Spec Values (MCL-1ΔNΔC [1]): 51.62
BCL-XL % Bound (BCL-XLΔC): 94.84%
MCL-1% Bound (MCL-1ΔNΔC [2]): 43.22%

COc1ccc(-n2nc3cc(C)c(N)c(Br)c3n2)cc1
Spec Values (MCL-1ΔNΔC [1]): 51.41
BCL-XL % Bound (BCL-XLΔC): 83.97%
MCL-1% Bound (MCL-1ΔNΔC [2]): 32.56%

Cc1nn(-c2ccccc2)c2nc3ccccc3c(N3CCOCC3)c12
Spec Values (MCL-1ΔNΔC [1]): 50.97
BCL-XL % Bound (BCL-XLΔC): 98.28%
MCL-1% Bound (MCL-1ΔNΔC [2]): 47.31%

COc1cccc(OCc2nnc(SCc3ccccc3)n2C)c1
Spec Values (MCL-1ΔNΔC [1]): 50.95
BCL-XL % Bound (BCL-XLΔC): 97.51%
MCL-1% Bound (MCL-1ΔNΔC [2]): 46.56%

CCOC(=O)c1c(C)oc2c1c1c(c3ccccc32)OCN(C2CC(C)(C)NC(C)(C)C2)C1
Spec Values (MCL-1ΔNΔC [1]): 50.9
BCL-XL % Bound (BCL-XLΔC): 85%
MCL-1% Bound (MCL-1ΔNΔC [2]): 34.11%

CC1CCC(C(C)C)C(OC(=O)COC(=O)c2ccc(O)cc2)C1 (stereo not drawn)
Spec Values (MCL-1ΔNΔC [1]): 50.73
BCL-XL % Bound (BCL-XLΔC): 106.5%
MCL-1% Bound (MCL-1ΔNΔC [2]): 55.74%

Cc1cccc(CSc2ccc(-c3ccco3)nn2)c1
Spec Values (MCL-1ΔNΔC [1]): 50.6
BCL-XL % Bound (BCL-XLΔC): 95.36%
MCL-1% Bound (MCL-1ΔNΔC [2]): 44.76%

CSc1sc(C(=O)/C=C/N(C)C)c(-c2cccs2)c1C#N
Spec Values (MCL-1ΔNΔC [1]): 50.48
BCL-XL % Bound (BCL-XLΔC): 30.42%
MCL-1% Bound (MCL-1ΔNΔC [2]): −20.06%

CCOc1cc(/C=C(/C#N)c2cccc(Br)c2)ccc1OCc1ccc(C(=O)O)o1
Spec Values (MCL-1ΔNΔC [1]): 50.28
BCL-XL % Bound (BCL-XLΔC): 85.88%
MCL-1% Bound (MCL-1ΔNΔC [2]): 35.61%

Cc1nn(C)c2nc(NNC(=O)c3cccc(C(F)(F)F)c3)ccc12
Spec Values (MCL-1ΔNΔC [1]): 50.23
BCL-XL % Bound (BCL-XLΔC): 107.3%
MCL-1% Bound (MCL-1ΔNΔC [2]): 57.07%

CCOC(=O)c1ccc2nc(NC(=O)CSc3nc(C)cc(=O)[nH]3)sc2c1
Spec Values (MCL-1ΔNΔC [1]): 49.78
BCL-XL % Bound (BCL-XLΔC): 106.3%
MCL-1% Bound (MCL-1ΔNΔC [2]): 56.55%

CC1=C(C)C/S(=N\S(=O)(=O)c2ccc(Cl)cc2)N(S(=O)(=O)c2ccc(Cl)cc2)C1 (stereo not drawn)
Spec Values (MCL-1ΔNΔC [1]): 49.76
BCL-XL % Bound (BCL-XLΔC): 100.2%
MCL-1% Bound (MCL-1ΔNΔC [2]): 50.42%

O=c1ccc(-c2ccco2)nn1Cc1ccc(Cl)c(Cl)c1
Spec Values (MCL-1ΔNΔC [1]): 49.7
BCL-XL % Bound (BCL-XLΔC): 96.49%
MCL-1% Bound (MCL-1ΔNΔC [2]): 46.79%

CN1CCN(C(c2ccccn2)c2c(-c3ccccc3)n(O)c3ccccc23)CC1 (stereo not drawn)
Spec Values (MCL-1ΔNΔC [1]): 49.28
BCL-XL % Bound (BCL-XLΔC): 99.83%
MCL-1% Bound (MCL-1ΔNΔC [2]): 50.55%
